The values that follow come from patent US20070167499A1, “Biaryl linked hydroxamates: preparation and pharmaceutical applications” (A*BIO Pte Ltd., priority 2003, published 2007).

In assay [1] the test system is Ramos Burkitt-lymphoma cells. Kind of assay: Apoptosis assay (Annexin V / PI flow cytometry). The format is cell-based, human. Particulars: 48 h after treatment with 10 μM. From the text:
In various therapies such as for proliferative disorders like cancer, the selective induction of apoptosis in proliferating cells such as tumor cells is one of the desirable approaches, and can be mediated by treatment with various anti-proliferative compounds [Blagosklonny MV, Oncogene, 23(16): 2967 (2004); Kaufmann and Eamshaw, Exp Cell Res. 256(1): 42-9 (2000)]. Programmed cell death or apoptosis is the cellular response to stress factors such as DNA damage introduced during conventional anti-cancer treatment. The concerted sequence of events during apoptosis, clearly differentiate this pathway from a non-coordinated form of cell death called necrosis. During the course of apoptosis, characteristic phenotypical cellular changes occur, which include the condensation of chromatin, the shrinkage of cells and finally the fragmentation of chromosomal DNA. One of the very early change caused by apoptotic events occurs in the phospholipids bilayer of the plasma membrane. The phospholipid phosphatidylserine is translocated from the inner to the outer side of the plasma-membrane and, as a result, is exposed to the extracellular space. One way of detecting early apoptotic cells is to determine the amount of phosphatidyl-serine at the extracellular side of the plasma-membrane which is accomplished by the standard flow cytometric method of Annexin V staining. The phospholipids recognizing protein Annexin V binds with high affinity to these inverted and exposed phosphatidyl-serines.
The ability of the compounds in this invention to induce apoptosis was tested in Ramos Burkitt-lymphoma cells. This cell line is one of the gold standard cell lines commonly used as a tissue culture model for B cell lymphoma. Representative compounds as indicated below were added to 80,000 cells per 500 μl growth medium (RPMI1640 medium supplemented with 2 mM L-Glutamine, 10% heat-inactivated FBS, 1 mM Na-Pyruvate and 10 mM HEPES) in 24 well format at various concentrations. Two days after the start of treatment, cells were collected and subjected to the Annexin V staining protocol following the instructions of the manufacturer (BD Biosciences). By using propidium iodide (PI) as a viability control, cells that stain positive for Annexin V, but negative for PI, are undergoing apoptosis.
On the technique in general: A flow cytometer gives signals particle by particle.

Another assay has as its target T1, HDAC1 enzyme (GST-HDAC1) (Homo sapiens, UniProt Q13547).
T1 construct: Amplification of human HDAC1 and HDAC8 coding region from this cDNA library; made in house; host or cells: SF9 insect cells (baculovirus, pDEST20 vector)
Kind of assay: In vitro HDAC assay for determination of IC50 values (BIOMOL fluorescent-based HDAC activity assay), HDAC1. The format is biochemical. The following applies: 600 nM HDAC1 enzyme, 500 μM Flur de lys generic substrate, room temperature 2 h. As for the experimental part: (§1) Recombinant GST-HDAC1 and GST-HDAC-8 Protein expression and purification
Human cDNA library was prepared using cultured SW620 cells. Amplification of human HDAC1 and HDAC8 coding region from this cDNA library was cloned separately into the baculovirus expression pDEST20 vector and pFASTBAC vector respectively (GATEWAY Cloning Technology, Invitrogen Pte Ltd). The pDEST20-HDAC1 and pFASTBAC-HTGST-HDAC8 constructs were confirmed by DNA sequencing. Recombinant baculovirus was prepared using the Bac-To-Bac method following the manufacturer's instruction (Invitrogen Pte Ltd). Baculovirus titer was determined by plaque assay to be about 10^8 PFU/ml.
(§2) Expression of GST-HDAC1 or HTGST-HDAC8 was done by infecting SF9 cells (Invitrogen Pte Ltd) with pDEST20-HDAC1 or pFASTBAC-GST-HDAC8 baculovirus at MOI=1 for 48 h. Soluble cell lysate was incubated with pre-equilibrated Glutathione Sepharose 4B beads (Amersham) at 4° C. for 2 h. The beads were washed with PBS buffer for 3 times. The GST-HDAC1 protein or GST-HDAC8 protein was eluted by elution buffer containing 50 mM Tris, pH8.0, 150 mM NaCl, 1% Triton X-100 and 10 mM or 20 mM reduced Glutathione. The purified GST-HDAC1 protein or purified GST-HDAC8 protein was dialyzed with HDAC storage buffer containing 10 mM Tris, pH7.5, 100 mM NaCl and 3 mM MgCl2. 20% Glycerol was added to purified GST-HDAC1 protein or purified GST-HDAC8 before storage at −80° C.
(§3) In vitro HDAC assay for determination of IC50 values
The assay has been carried out in 96 well format and the BIOMOL fluorescent-based HDAC activity assay has been applied. The reaction composed of assay buffer, containing 25 mM Tris pH 7.5, 137 mM NaCl, 2.7 mM KCl, 1 mM MgCl2, 1 mg/ml BSA, tested compounds, 500 nM HDAC8 enzyme or 600 nM HDAC1 enzyme, 200 μM Flur de lys p53 peptide substrate for HDAC8 enzyme or 500 μM Flur de lys generic substrate for HDAC1 enzyme and subsequently was incubated at room temperature for 2 h. Flur de lys Developer was added and the reaction was incubated for 10 min. Briefly, deacetylation of the substrate sensitizes it to the developer, which then generates a fluorophore The fluorophore is excited with 360 nm light and the emitted light (460 nm) is detected on a fluorometric plate reader (Tecan Ultra Microplate detection system, Tecan Group Ltd.).
(§4) The analytical software, Prism 3.0® (GraphPad Software Inc) has been used to generate IC50 from a series of data.

The target in another assay is T2, HDAC8 enzyme (GST-HDAC8) (Homo sapiens, UniProt Q9BY41).
T2 construct: Amplification of human HDAC1 and HDAC8 coding region from this cDNA library; made in house; host or cells: SF9 insect cells (baculovirus, pFASTBAC vector)
T2 sequence (Q9BY41 1-377): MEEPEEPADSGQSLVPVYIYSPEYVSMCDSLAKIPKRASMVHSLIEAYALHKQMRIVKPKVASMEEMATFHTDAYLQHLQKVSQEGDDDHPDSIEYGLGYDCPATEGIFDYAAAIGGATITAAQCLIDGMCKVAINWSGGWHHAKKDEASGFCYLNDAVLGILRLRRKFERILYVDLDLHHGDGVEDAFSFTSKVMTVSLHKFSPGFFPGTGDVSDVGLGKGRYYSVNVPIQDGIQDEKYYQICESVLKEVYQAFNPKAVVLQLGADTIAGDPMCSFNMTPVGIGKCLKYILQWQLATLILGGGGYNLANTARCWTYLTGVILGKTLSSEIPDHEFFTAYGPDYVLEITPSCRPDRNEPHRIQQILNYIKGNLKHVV
Briefly: In vitro HDAC assay for determination of IC50 values (BIOMOL fluorescent-based HDAC activity assay), HDAC8. Particulars: 500 nM HDAC8 enzyme, 200 μM Flur de lys p53 peptide substrate, room temperature 2 h; read-out: HDAC8 Enzyme Activity, IC50. The format is biochemical. As for the experimental part:
as §1
Human cDNA library was prepared using cultured SW620 cells. Amplification of human HDAC1 and HDAC8 coding region from this cDNA library was cloned separately into the baculovirus expression pDEST20 vector and pFASTBAC vector respectively (GATEWAY Cloning Technology, Invitrogen Pte Ltd). […] Recombinant baculovirus was prepared using the Bac-To-Bac method following the manufacturer's instruction (Invitrogen Pte Ltd).
as §2, §3
The assay has been carried out in 96 well format and the BIOMOL fluorescent-based HDAC activity assay has been applied. […] Flur de lys Developer was added and the reaction was incubated for 10 min. Briefly, deacetylation of the substrate sensitizes it to the developer, which then generates a fluorophore The fluorophore is excited with 360 nm light and the emitted light (460 nm) is detected on a fluorometric plate reader (Tecan Ultra Microplate detection system, Tecan Group Ltd.).
as §4

Assay [2] has as its system acetylated H3 in Colo205 cells. Briefly: Histone H3 acetylation assay (western-blot). On the set-up: key: “Active” means accumulation of acetylated histone was observed when compared with control (without compound). The following applies: Colo205 cells, 0.1, 1, 5 and 10 μM, after 24 h. The format is cell-based, human. As for the experimental part: (§5) Histone H3, H4 and H2A acetylation assay
A hallmark of histone deacetylase (HDAC) inhibition is the increase in the acetylation level of histones. Histone acetylation, including H3, H4 and H2A can be detected by immuno-blotting (western-blot). Colo205 cells, approximately 1.5×10^6 cells/10 cm dish, were seeded in the previously described medium, cultivated for 24 h and subsequently treated with HDAC inhibitory agents at 0.1, 1, 5 and 10 μM final concentration. […] The protein concentration was quantified using BCA method (Sigma Pte Ltd). The protein lysate was separated using 4-12% bis-tris SDS-PAGE gel (Invitrogen Pte Ltd) and was transferred onto PVDF membrane (BioRad Pte Ltd). The membrane was probed separately using primary antibody specific for acetylated H3, acetylated H4 or acetylated H2A (Upstate Pte Ltd). The detection antibody, goat anti rabbit antibody conjugated with horse radish peroxidase (HRP) was used according to the manufacturing instruction (Pierce Pte Ltd). After removing the detection antibody from the membrane, an enhanced chemiluminescent substrate for detection of HRP (Pierce Pte Ltd) was added onto the membrane. After removing the substrate, the membrane was exposed to an X-ray film (Kodak) for 1 sec-20 mins. The X-ray film was developed using the X-ray film processor. The density of each band observed on the developed film could be analysed using UVP Bioimaging software (UVP, Inc, Upland, Calif.). The values were then normalized against the density of actin in the corresponding samples to obtain the expression of the protein.

The subject of assay [3] is acetylated H4 in Colo205 cells. Kind of assay: Histone H4 acetylation assay (western-blot). The format is cell-based, human. On the set-up: key: “Active” means accumulation of acetylated histone was observed when compared with control (without compound). The following applies: Colo205 cells, 0.1, 1, 5 and 10 μM, after 24 h. As for the experimental part: as §5
A hallmark of histone deacetylase (HDAC) inhibition is the increase in the acetylation level of histones. Histone acetylation, including H3, H4 and H2A can be detected by immuno-blotting (western-blot). Colo205 cells, approximately 1.5×10^6 cells/10 cm dish, were seeded in the previously described medium, cultivated for 24 h and subsequently treated with HDAC inhibitory agents at 0.1, 1, 5 and 10 μM final concentration. After 24 h, cells were harvested and lysed according to the instruction from Sigma Mammalian Cell Lysis Kit. The protein concentration was quantified using BCA method (Sigma Pte Ltd). The protein lysate was separated using 4-12% bis-tris SDS-PAGE gel (Invitrogen Pte Ltd) and was transferred onto PVDF membrane (BioRad Pte Ltd). The membrane was probed separately using primary antibody specific for acetylated H3, acetylated H4 or acetylated H2A (Upstate Pte Ltd). The detection antibody, goat anti rabbit antibody conjugated with horse radish peroxidase (HRP) was used according to the manufacturing instruction (Pierce Pte Ltd). After removing the detection antibody from the membrane, an enhanced chemiluminescent substrate for detection of HRP (Pierce Pte Ltd) was added onto the membrane. After removing the substrate, the membrane was exposed to an X-ray film (Kodak) for 1 sec-20 mins. The X-ray film was developed using the X-ray film processor. The density of each band observed on the developed film could be analysed using UVP Bioimaging software (UVP, Inc, Upland, Calif.). The values were then normalized against the density of actin in the corresponding samples to obtain the expression of the protein.

T1 sequence (Q13547 whole entry): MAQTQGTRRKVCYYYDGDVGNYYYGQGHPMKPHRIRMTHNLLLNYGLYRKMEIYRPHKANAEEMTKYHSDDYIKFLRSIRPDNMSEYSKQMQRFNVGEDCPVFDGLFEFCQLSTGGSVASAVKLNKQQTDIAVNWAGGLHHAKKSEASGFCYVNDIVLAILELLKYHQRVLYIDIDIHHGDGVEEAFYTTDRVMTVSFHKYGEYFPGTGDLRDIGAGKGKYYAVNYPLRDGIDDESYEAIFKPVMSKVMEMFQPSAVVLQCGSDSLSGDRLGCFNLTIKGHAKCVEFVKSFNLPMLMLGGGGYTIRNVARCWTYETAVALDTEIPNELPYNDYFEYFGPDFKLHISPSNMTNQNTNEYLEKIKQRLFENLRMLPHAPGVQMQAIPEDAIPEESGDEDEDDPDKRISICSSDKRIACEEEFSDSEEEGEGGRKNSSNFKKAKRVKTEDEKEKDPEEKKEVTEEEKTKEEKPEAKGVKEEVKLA

In the case of `O=C(Cc1ccccc1)NCc1cccc(-c2ccc(C(=O)NO)cc2)c1` [3′-(Phenylacetylamino-methyl)-biphenyl-4-carboxylic acid hydroxyamide, reference compound], in assay [1], the “% cells in late apoptosis (Ramos)” value is 89%.
On to `Cc1nc(C2CCCNC2)sc1C(=O)Nc1nc(-c2ccc(CC(=O)NO)s2)cs1` (stereo not drawn) [Example 6], for which the IC50 (in general, the concentration that gives 50% inhibition) was found to be 2780 nM at HDAC1 enzyme (GST-HDAC1) and 40 nM at HDAC8 enzyme (GST-HDAC8).
With `O=C(Cc1ccc(-c2csc(NC(=O)c3ccc(N4CCNCC4)cc3)n2)s1)NO` [Example 8], the IC50 against HDAC1 enzyme (GST-HDAC1) turned out to be 2760 nM; at HDAC8 enzyme (GST-HDAC8) it was 89 nM. In addition, in assay [1], the “% cells in late apoptosis (Ramos)” value is 74%.
As for `O=C(Cc1ccc(-c2csc(NC(=O)c3ccn(CC4CCNCC4)c3-c3ccccc3)n2)s1)NO` [Example 10], the values for the IC50 against HDAC1 enzyme (GST-HDAC1) and on HDAC8 enzyme (GST-HDAC8) were above 100000 nM and 140 nM, respectively.
Turning to `O=C(NO)c1ccc(-c2csc(NS(=O)(=O)c3ccccc3)n2)s1` [Example 15, 5-(2-Benzenesulfonylamino-thiazol-4-yl)-thiophene-2-carboxylic acid hydroxyamide], the IC50 against HDAC1 enzyme (GST-HDAC1) came to 1130 nM; at HDAC8 enzyme (GST-HDAC8), 290 nM.
For the molecule `O=C(COc1ccccc1)Nc1nc(-c2ccc(C(=O)NO)s2)cs1` [Example 16, 5-[2-(2-Phenoxy-acetamino)-thiazol-4-yl]-thiophene-2-carboxylic acid hydroxyamide], the IC50 against HDAC1 enzyme (GST-HDAC1) came out at 700 nM; at HDAC8 enzyme (GST-HDAC8) it was 38 nM. For the same molecule, the “% cells in late apoptosis (Ramos)” value in assay [1] was determined as 90%.
For `O=C(Cc1ccccc1)Nc1nc(-c2cc(C(=O)NO)no2)cs1` [Example 17, 5-(2-Phenylacetylamino-thiazol-4-yl)-isoxazole-3-carboxylic acid hydroxyamide], the IC50 against HDAC1 enzyme (GST-HDAC1) is 1400 nM; at HDAC8 enzyme (GST-HDAC8), 340 nM.
On to `O=C(Nc1cccc(-c2cc(C(=O)NO)n[nH]2)c1)c1ccccc1` [Example 18, 5-(3-Benzoylamino-ihenyl)-1H-pyrazole-3-carboxylic acid hydroxyamide], for which the IC50 against HDAC1 enzyme (GST-HDAC1) is above 100000 nM; at HDAC8 enzyme (GST-HDAC8) it was 350 nM.
For `O=C(NO)c1ccc(-c2ccc(CNCCc3c[nH]c4ccccc34)cc2)s1` [Example 28], in that order: 15 nM and 14 nM.
For the molecule `O=C(NO)c1ccc(-c2cccc(CNCCc3ccccc3)c2)s1` [Example 29], the IC50 against HDAC1 enzyme (GST-HDAC1) was determined as 87 nM; at HDAC8 enzyme (GST-HDAC8), 26 nM.
With `O=C(NO)c1ccc(-c2cccc(CNCCc3ccccn3)c2)s1` [Example 30], the values for the IC50 on HDAC1 enzyme (GST-HDAC1) and at HDAC8 enzyme (GST-HDAC8) were 220 nM and 50 nM, respectively. Moreover, the “Histone 3 acetylation” value in assay [2] is listed as “Active”. Also, the “Histone 4 acetylation” value in assay [3] is given as “Active”.
Turning to `O=C(NO)c1ccc(-c2cccc(CNCCc3c[nH]c4ccccc34)c2)s1` [Example 31], the IC50 was 17 nM against HDAC1 enzyme (GST-HDAC1) and 8 nM at HDAC8 enzyme (GST-HDAC8).
Turning to `O=C(NO)c1ccc(-c2ccc(NCc3ccccc3)cc2)s1` [Example 44], the values for the IC50 on HDAC1 enzyme (GST-HDAC1) and on HDAC8 enzyme (GST-HDAC8) were 1420 nM and 110 nM, respectively. The “% cells in late apoptosis (Ramos)” value in assay [1] was 82%.
